Data taken from US12239711B2, “Cereblon ligands and bifunctional compounds comprising the same” (Arvinas Operations, Inc., priority 2014, dated 2025).

Assays:
[1] = target: T1, BRaf (Homo sapiens, UniProt P15056, V600E); assay: BRaf protein degradation assay in A375 cells (western blot / In-Cell Western); assay type: cell-based; details: for Dmax: A-375
T1 construct: endogenous in cells; host or cells: A375 cells
Experimental: 5. BRaf Protein In Vitro Degradation Assay (A375 Cells) of Table 7
A375 cells were cultured in ATCC DMEM+10% FBS in 12 well plates, and treated with indicated compound from Tables 1-41 or 0.1% DMSO vehicle control for 16 hours. Cells were harvested in Cell Signaling lysis buffer (Cat #9803) with the addition of Roche protease inhibitor tablets (Cat #11873580001), and lysates clarified by microcentrifugation. Proteins were separated by SDS-PAGE, and transferred onto nitrocellulose membranes using an Invitrogen iBlot system. Immunoblotting was performed for BRaf (Santa Cruz Cat #9002), CRAF (BD Cat #610151), and pErk (Cell Signaling Cat #9106). GAPDH (Cell Signaling Cat #2118) was used as a loading control. Quantification was carried out using the BioRad Image Lab 5 software.
6. BRaf In-Cell Western Cellular Degradation Assay (A375 Cells) of Table 7
A375 cells were cultured in ATCC DMEM+10% FBS in 96-well plates, and treated with indicated compounds from Tables-43 or 0.1% DMSO vehicle control for 72 hours. Cells were washed with PBS 1×, and affixed to plate using 4% PFA in phosphate buffered saline for 15 minutes; washed 1× and permeabilized using 0.1% Triton-X-100 in PBS for 5 minutes; washed 1× and blocked with LICOR blocker (Cat. #927-50000) for 1 hour. Cells were then incubated with B-Raf antibody (Santa Cruz Cat #9002, Santa Cruz Cat #528) and tubulin antibody (Sigma #T6074) in LICOR blocker for 18 hours. Cells were washed 3× prior to adding secondary antibodies (LICOR cat #926-32210 and 926-68071) and incubated for 1 hour. Cells were washed 3× and imaged using LICOR Odyssey Software.

[2] = target: T2, BRD4 (Homo sapiens, UniProt O60885); assay: BRD4 Western protocol in 22Rv-1 or VCaP cells; assay type: cell-based; details: 16 hours, western blot
T2 construct: 22Rv-1 or VCaP cells were purchased from ATCC and cultured in Dulbecco's Modified Eagle's Medium; host or cells: 22Rv-1 or VCaP cells
Experimental: 7. BRD4 Western Protocol for Table 8
22Rv-1 or VCaP cells were purchased from ATCC and cultured in Dulbecco's Modified Eagle's Medium (ATCC), supplemented with 10% FBS (ATCC) and Penicillin/Streptomycin (Life Technologies). DMSO control and compound treatments (0.003 μM, 0.01 μM, 0.03 μM and 0.1 μM) were performed in 12-well plates for 16 hours. Cells were harvested, and lysed in RIPA buffer (50 mM Tris pH8, 150 mM NaCl, 1% Tx-100, 0.1% SDS, 0.5% sodium deoxycholate) supplemented with protease and phosphatase inhibitors. Lysates were clarified at 16,000 g for 10 minutes, and protein concentration was determined. Equal amount of protein (20 μg) was subjected to SDS-PAGE analysis and followed by immunoblotting according to standard protocols. The antibodies used were BRD4 (Cell Signaling #13440), and Actin (Sigma #5441). Detection reagents were Clarity Western ECL substrate (Bio-rad #170-5060).

T1 sequence (P15056 whole entry V600E): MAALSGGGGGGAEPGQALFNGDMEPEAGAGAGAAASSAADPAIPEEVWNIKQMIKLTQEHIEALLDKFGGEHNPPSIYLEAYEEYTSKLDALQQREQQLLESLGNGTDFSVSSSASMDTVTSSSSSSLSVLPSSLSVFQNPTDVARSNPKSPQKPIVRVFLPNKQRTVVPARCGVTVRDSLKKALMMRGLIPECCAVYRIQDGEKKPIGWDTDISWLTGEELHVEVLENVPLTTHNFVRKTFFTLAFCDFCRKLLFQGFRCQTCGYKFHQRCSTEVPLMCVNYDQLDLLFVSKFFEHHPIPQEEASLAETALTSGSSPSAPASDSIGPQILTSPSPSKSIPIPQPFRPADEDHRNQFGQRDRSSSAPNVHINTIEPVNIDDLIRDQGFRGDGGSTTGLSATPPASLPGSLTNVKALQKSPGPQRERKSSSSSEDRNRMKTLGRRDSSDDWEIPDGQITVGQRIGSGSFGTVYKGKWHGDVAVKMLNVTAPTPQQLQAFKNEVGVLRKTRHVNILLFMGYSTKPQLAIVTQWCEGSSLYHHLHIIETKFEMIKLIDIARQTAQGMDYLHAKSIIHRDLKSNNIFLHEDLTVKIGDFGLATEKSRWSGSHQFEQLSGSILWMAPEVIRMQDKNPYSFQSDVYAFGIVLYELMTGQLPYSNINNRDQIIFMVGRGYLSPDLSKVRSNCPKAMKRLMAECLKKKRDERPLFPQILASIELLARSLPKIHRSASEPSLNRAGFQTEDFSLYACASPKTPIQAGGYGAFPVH
T1 sequence (Q96SW2 whole entry partner): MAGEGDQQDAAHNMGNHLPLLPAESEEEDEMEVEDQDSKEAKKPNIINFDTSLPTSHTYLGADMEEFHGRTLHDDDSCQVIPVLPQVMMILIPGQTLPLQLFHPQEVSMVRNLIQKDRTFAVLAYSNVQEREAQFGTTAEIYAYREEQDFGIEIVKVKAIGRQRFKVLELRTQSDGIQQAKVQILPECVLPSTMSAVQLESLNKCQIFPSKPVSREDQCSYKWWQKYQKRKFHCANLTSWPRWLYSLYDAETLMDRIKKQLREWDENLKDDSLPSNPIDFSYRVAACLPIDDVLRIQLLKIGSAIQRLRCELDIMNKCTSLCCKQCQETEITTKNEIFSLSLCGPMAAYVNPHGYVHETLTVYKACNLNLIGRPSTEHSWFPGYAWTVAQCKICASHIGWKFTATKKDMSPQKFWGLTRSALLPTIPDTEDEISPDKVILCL

Row | SMILES | DC50 [1] [nM] | Dmax [1] [%] | DC50 [2] [nM] | Dmax [2] [%]
1 | Cc1cc2c(cc1N1CCN(c3ccc(-n4cc(-c5ccc6c(c5)CC/C6=N\O)c(-c5ccncc5)n4)cc3)CC1)C(=O)N(C1CCC(=O)NC1=O)C2=O (centres unmarked) [compound 40, (E)-2-(2,6-dioxopiperidin-3-yl)-5-(4-(4-(4-(1-(hydroxyimino)-2,3-dihydro-1H-inden-5-yl)-3-(pyridin-4-yl)-1H-pyrazol-1-yl)phenyl)pipeiazin-1-yl)-6-methylisoindoline-1,3-dione] | 10 to 100 | ≥ 75 |  | 
2 | O=C1CCC(N2C(=O)c3ccc(N4CCN(c5ccc(-n6cc(-c7ccc8c(c7)CC/C8=N\O)c(-c7ccncc7)n6)cc5)CC4)c(-c4ccccc4)c3C2=O)C(=O)N1 (centres unmarked) [compound 41, (E)-2-(2,6-dioxopiperidin-3-yl)-5-(4-(4-(4-(1-(hydroxyimino)-2,3-dihydro-1H-inden-5-yl)-3-(pyridin-4-yl)-1H-pyrazol-1-yl)phenyl)piperazin-1-yl)-4-phenylisoindoline-1,3-dione] | 10 to 100 | ≥ 75 |  | 
3 | O=C1CCC(N2C(=O)c3cc(N4CCN(c5ccc(-n6cc(-c7ccc8c(c7)CC/C8=N\O)c(-c7ccncc7)n6)cc5)CC4)cc(-c4ccccc4)c3C2=O)C(=O)N1 (centres unmarked) [compound 39, (E)-2-(2,6-dioxopiperidin-3-yl)-6-(4-(4-(4-(1-(hydroxyimino)-2,3-dihydro-1H-inden-5-yl)-3-(pyridin-4-yl)-1H-pyrazol-1-yl)phenyl)piperazin-1-yl)-4-phenylisoindoline-1,3-dione] | 10 to 100 | 50 to 75 |  | 

The next lines start with the values.

Row | DC50 [1] [nM] | Dmax [1] [%] | DC50 [2] [nM] | Dmax [2] [%] | SMILES
4 |  |  | ≥ 100 | 50 to 75 | Cc1sc2c(c1C)C(c1ccc(Cl)cc1)=N[C@@H](CC(=O)Nc1ccc(OCCOCCOCCOCCNc3cccc4c3CN([C@H]3CCC(=O)NC3)C4=O)cc1)c1nnc(C)n1-2 [compound 43, 2-((R)-4-(4-chlorophenyl)-2,3,9-trimethyl-6H-thieno[3,2-f][1,2,4]triazolo[4,3-a][1,4]diazepin-6-yl)-N-(4-(2-(2-(2-(2-((1-oxo-2-((R)-6-oxopiperidin-3-yl)isoindolin-4-yl)amino)ethoxy)ethoxy)ethoxy)ethoxy)phenyl)acelamide]
5 |  |  | 10 to 100 | ≥ 75 | Cc1sc2c(c1C)C(c1ccc(Cl)cc1)=N[C@@H](CC(=O)Nc1ccc(OCCOCCOCCOCCOc3ccc4c(=O)n(C5CCC(=O)NC5=O)c(C)nc4c3)cc1)c1nnc(C)n1-2 (stereo partly drawn) [compound 45, 2-((S)-4-(4-chlorophenyl)-2,3,9-trimethyl-6H-thieno[3,2-f][1,2,4]triazolo[4,3-a][1,4]diazepin-6-yl)-N-(4-(2-(2-(2-(2-((3-(2,6-dioxopiperidin-3-yl)-2-methyl-4-oxo-3,4-dihydroquinazolin-7-yl)oxy)ethoxy)ethoxy)ethoxy)ethoxy)phenyl)acetamide]
6 | 10 to 100 | 50 to 75 |  |  | Cc1c(N2CCN(c3ccc(-n4cc(-c5ccc6c(c5)CC/C6=N\O)c(-c5ccncc5)n4)cc3)CC2)ccc2c1C(=O)N(C1CCC(=O)NC1=O)C2=O (centres unmarked) [compound 42, (E)-2-(2,6-dioxopiperidin-3-yl)-5-(4-(4-(4-(1-(hydroxyimino)-2,3-dihydro-1H-inden-5-yl)-3-(pyridin-4-yl)-1H-pyrazol-1-yl)phenyl)piperazin-1-yl)-4-methylisoindoline-1,3-dione]
7 |  |  | ≥ 100 | < 50 | Cc1sc2c(c1C)C(c1ccc(Cl)cc1)=N[C@@H](CC(=O)Nc1ccc(OCCOCCOCCOCCOc3cccc4c(=O)n(C5CCC(=O)NC5=O)c(C)nc34)cc1)c1nnc(C)n1-2 (stereo partly drawn) [compound 44, 2-((S)-4-(4-chlorophenyl)-2,3,9-trimethyl-6H-thieno[3,2-f][1,2,4]triazolo[4,3-a][1,4]diazepin-6-yl)-N-(4-(2-(2-(2-(2-((3-(2,6-dioxopiperidin-3-yl)-2-methyl-4-oxo-3,4-dihydroquinazolin-8-yl)oxy)ethoxy)ethoxy)ethoxy)ethoxy)phenyl)acetamide]
